Tests used:
[1] = target: human sodium channel Nav 1.8 (Homo sapiens (Human), UniProt Q9Y5Y9); assay: Automated whole-cell voltage-clamp (ScreenPatch 384P), Nav 1.8 sodium current, Protocol 2; format: cell-based; conditions: read-out: Nav1.8 IC50
Protocol: (§1) Biological assays were performed on Chinese hamster ovary (CHO) cells expressing the human sodium channels Nav 1.8 and Nav 1.7 stably.
(§2) The experimental voltage-clamp protocol using the whole cell configuration was established on the automated ScreenPatch® 384P platform (SP384PE, Nanion Technologies, Livingston, NJ) and recording of the results was performed with a Nanion 384-well Patch Clamp chip (NPC) (Nanion Technologies, Livingston, NJ).
(§3) Compounds of Formula (I), were diluted in eight concentrations in the extracellular solution composed of physiological saline, buffered with HEPES (mM): NaCl, 137; KCl, 4; CaCl2, 3.8; MgCl2, 1; HEPES, 10; Glucose, 10; pH 7.4. The […], 50; CsF, 90; MgCl2, 5; EGTA, 5; HEPES, 10; pH 7.2. The duration of exposure of each compound with the cells expressing Nav 1.7 or Nav 1.8 was at least five minutes and the assays were performed at room temperature.
(§4) The measurements of the sodium currents of Nav 1.8 and Nav 1.7 were obtained using the voltage protocols described below: • Protocol 1: A holding voltage of-90 mV was established followed by a voltage phase of 200 ms to-120 mV, followed by a voltage step of 10 mV for 1 second for Nav 1.8 or 0 mV for Nav 1.7, followed by a step of-100 mV for 20 ms, followed by a step of 20 ms for 10 mV for Nav 1.8 or 0 mV for Nav 1.7 (TP1A) before returning to the holding voltage of-90 mV. • Protocol 2: A holding voltage of-100 mV was established followed by an inactivation voltage step at −40 mV for 8 seconds, followed by a −100 mV step for 20 ms, followed by a 20 ms step for 10 mV for Nav 1.8 or 0 mV for Nav 1.7 (TP1A) before returning to the holding voltage of-100 mV.
(§5) Protocols were repeated at a frequency of 0.1 Hz (Protocol 1) or 0.05 Hz (Protocol 2) and current amplitude was quantified over the TP1A phase log. The variation in the peak amplitude of the current was evaluated according to the Formula described below, after exposure of the cells expressing the channels, at each concentration of the different compounds:
(§6) where ITP1A,basal, and ITP1A,molecule represent the entry peaks of sodium currents into TP1A prior to exposure to the compound and in the presence of the compound, respectively.
(§7) The decrease in peak current amplitude, after exposure of the cells to the compounds, was used to calculate the percent relative blocking of the channels relative to the positive control according to the Formula below: […]
(§8) where % V and % CP represent the averages of the values of current inhibition with a vehicle (DMSO) and positive controls, respectively. The sodium currents of the positive control were considered as 100%.
(§9) where [Test] represents the concentration of the evaluated molecule, IC50 is the concentration of the compound that generates half of the maximum inhibition, N is the Hill's coefficient and % Block′ is the percentage of the sodium channel current (Nav 1.8 and Nav 1.7) inhibited at each concentration of the evaluated molecule. Data were obtained by non linear least squares regression with XL fit for Excel (Microsoft, Redmond, WA).
(§10) Compounds were tested in at least one assay to obtain the IC50 value.

[2] = target: human sodium channel Nav 1.7 (Homo sapiens (Human), UniProt Q15858); assay: Automated whole-cell voltage-clamp (ScreenPatch 384P), Nav 1.7 sodium current, Protocol 2; format: cell-based; conditions: read-out: Nav1.7 IC50
Protocol: as §1, §2, §3, §4, §5, §6, §7, §8, §9, §10

Chain of human sodium channel Nav 1.7 (Q15858 whole entry): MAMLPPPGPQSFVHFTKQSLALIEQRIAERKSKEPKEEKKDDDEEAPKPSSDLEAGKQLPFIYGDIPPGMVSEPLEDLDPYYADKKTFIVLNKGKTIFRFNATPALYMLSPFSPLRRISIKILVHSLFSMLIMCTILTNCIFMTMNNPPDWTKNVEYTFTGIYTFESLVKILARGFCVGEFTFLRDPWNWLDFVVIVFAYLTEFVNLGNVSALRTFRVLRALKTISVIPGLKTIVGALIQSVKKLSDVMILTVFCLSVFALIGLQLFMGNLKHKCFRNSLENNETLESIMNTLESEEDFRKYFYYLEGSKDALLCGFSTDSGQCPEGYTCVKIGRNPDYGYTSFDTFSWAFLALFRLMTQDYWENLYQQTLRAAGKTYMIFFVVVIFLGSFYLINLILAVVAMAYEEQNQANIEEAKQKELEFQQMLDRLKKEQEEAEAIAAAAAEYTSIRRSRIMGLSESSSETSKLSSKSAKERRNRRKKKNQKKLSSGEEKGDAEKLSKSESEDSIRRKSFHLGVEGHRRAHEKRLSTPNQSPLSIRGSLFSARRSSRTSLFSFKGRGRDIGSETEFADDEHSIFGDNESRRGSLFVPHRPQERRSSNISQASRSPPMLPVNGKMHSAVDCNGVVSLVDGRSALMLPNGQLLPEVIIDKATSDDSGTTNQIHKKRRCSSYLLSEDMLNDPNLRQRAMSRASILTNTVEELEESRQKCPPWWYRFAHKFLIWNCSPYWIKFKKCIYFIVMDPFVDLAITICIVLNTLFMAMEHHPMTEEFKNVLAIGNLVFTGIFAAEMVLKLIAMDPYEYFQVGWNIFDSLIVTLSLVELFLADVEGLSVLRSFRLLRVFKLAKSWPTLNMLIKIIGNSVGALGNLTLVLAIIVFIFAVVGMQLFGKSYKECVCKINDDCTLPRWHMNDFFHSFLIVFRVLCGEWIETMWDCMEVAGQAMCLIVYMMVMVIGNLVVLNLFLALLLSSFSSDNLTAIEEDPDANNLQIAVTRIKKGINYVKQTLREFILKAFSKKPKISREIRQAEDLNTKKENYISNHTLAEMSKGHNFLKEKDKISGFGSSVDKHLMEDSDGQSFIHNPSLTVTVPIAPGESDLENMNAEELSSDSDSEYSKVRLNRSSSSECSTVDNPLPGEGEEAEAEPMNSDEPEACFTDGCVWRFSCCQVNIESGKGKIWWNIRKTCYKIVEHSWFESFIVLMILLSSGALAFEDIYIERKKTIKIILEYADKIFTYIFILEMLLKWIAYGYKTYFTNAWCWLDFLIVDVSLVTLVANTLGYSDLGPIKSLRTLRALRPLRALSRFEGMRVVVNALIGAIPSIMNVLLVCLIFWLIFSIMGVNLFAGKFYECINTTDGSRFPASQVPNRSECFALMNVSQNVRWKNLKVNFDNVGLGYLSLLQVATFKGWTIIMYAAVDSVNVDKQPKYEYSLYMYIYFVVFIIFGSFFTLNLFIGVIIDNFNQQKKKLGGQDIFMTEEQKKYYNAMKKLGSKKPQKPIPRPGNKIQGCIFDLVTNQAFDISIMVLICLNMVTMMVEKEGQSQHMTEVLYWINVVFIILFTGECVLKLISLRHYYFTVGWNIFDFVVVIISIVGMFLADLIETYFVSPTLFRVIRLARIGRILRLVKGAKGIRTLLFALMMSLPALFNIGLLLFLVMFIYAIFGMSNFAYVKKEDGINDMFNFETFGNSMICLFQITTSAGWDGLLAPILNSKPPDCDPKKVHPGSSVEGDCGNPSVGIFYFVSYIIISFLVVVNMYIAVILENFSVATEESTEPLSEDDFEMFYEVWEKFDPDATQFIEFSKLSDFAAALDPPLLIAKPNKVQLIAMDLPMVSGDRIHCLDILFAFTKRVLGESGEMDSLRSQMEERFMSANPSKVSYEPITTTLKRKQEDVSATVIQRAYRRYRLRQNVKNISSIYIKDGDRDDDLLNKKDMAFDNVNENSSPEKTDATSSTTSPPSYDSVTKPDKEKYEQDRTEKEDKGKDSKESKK
Chain of human sodium channel Nav 1.8 (Q9Y5Y9 whole entry): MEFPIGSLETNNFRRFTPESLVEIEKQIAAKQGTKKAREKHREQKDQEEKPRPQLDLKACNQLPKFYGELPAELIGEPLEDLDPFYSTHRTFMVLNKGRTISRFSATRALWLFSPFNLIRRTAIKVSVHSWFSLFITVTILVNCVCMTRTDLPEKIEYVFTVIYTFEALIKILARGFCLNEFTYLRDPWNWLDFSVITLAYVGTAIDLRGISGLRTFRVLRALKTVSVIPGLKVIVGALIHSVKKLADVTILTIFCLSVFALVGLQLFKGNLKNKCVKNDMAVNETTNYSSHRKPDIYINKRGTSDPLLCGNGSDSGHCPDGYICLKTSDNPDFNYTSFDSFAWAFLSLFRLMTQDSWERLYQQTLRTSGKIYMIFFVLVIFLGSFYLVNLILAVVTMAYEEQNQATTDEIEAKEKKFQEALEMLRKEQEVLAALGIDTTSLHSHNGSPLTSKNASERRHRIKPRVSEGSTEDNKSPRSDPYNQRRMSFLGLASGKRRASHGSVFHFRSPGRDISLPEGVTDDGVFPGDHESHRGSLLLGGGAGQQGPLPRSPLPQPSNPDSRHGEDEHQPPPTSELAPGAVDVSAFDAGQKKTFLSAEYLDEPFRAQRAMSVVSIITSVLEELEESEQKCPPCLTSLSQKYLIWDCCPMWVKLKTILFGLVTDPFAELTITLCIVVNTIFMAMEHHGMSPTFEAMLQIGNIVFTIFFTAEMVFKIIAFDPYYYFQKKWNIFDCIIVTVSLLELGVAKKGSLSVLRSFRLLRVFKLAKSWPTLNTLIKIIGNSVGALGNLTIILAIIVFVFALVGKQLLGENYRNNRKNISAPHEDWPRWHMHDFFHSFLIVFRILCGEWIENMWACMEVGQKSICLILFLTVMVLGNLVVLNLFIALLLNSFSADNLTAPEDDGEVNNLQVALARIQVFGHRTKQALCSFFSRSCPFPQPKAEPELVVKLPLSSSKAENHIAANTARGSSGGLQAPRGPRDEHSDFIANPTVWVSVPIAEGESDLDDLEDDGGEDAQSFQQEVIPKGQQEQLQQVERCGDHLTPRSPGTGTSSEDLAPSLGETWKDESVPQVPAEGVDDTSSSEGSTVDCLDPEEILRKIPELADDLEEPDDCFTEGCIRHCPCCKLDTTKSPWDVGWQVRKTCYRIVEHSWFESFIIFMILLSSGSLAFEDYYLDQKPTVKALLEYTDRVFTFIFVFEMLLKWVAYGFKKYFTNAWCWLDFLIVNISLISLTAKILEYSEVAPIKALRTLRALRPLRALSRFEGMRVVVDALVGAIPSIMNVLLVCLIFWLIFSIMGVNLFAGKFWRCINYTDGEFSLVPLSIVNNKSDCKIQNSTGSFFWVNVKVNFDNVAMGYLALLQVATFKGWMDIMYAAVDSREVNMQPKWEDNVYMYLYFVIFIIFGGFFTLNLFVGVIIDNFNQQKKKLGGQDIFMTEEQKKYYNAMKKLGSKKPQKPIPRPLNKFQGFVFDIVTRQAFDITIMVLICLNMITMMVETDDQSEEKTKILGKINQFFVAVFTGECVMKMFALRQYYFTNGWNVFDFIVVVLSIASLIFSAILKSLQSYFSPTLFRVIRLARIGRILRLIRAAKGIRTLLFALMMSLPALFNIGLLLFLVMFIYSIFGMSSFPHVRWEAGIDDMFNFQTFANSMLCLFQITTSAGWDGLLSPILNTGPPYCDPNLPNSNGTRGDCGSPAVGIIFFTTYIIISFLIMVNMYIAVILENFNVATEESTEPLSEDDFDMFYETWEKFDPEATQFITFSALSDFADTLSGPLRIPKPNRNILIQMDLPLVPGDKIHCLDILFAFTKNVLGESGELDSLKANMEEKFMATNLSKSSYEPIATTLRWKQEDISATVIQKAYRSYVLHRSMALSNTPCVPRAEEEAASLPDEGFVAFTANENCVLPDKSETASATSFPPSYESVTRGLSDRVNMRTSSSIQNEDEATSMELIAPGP

Row | IC50 [1] | IC50 [2] | SMILES
1 | > 1000 nM | > 10000 nM | COc1cc(/C=N/NC(=O)c2cncc(-c3cccc(F)c3)n2)cc(OC)c1 [Compound 94, (E)-N′-(3,5-dimethoxybenzylidene)-6-(3-fluorophenyl)pyrazine-2-carbohydrazide]
2 | 963 nM | > 1000 nM | COc1cc(/C=N/NC(=O)c2cncc(-c3ccc(C(F)F)cc3)n2)cc(OC)c1 [Compound 177, (E)-6-(4-(difluoromethyl)phenyl)-N′-(3,5-dimethoxybenzylidene)pyrazine-2-carbohydrazide]
3 | 131 nM | 1380 nM | COc1ccc(-c2cncc(C(=O)N/N=C/c3ccccc3C)n2)cc1 [Compound 51, (E)-6-(4-methoxyphenyl)-N′-(2-methylbenzylidene)pyrazine-2-carbohydrazide]
4 | 25.2 nM | 243 nM | CCOc1ccc(-c2cncc(C(=O)N/N=C/c3cc(F)cc(OC)c3)n2)cc1 [Compound 15, (E)-6-(4-ethoxyphenyl)-N′-(3-fluoro-5-methoxybenzylidene)pyrazine-2-carbohydrazide]
5 | 433 nM | 1000 nM | CCCc1ccc(-c2cncc(C(=O)N/N=C/c3cc(OC)cc(OC)c3)n2)cc1 [Compound 113, (E)-N′-(3,5-dimethoxybenzylidene)-6-(4-propylphenyl)pyrazine-2-carbohydrazide]
6 | > 1000 nM | > 10000 nM | COc1ccc(-c2cncc(C(=O)N/N=C/c3ccnc(C(N)=O)c3)n2)cc1 [Compound 36, (E)-4-((2-(6-(4-methoxyphenyl)pyrazine-2-carobnyl)hydrazono)methyl)picolinamide]
7 | 761 nM | > 10000 nM | COc1ccc(-c2cncc(C(=O)N/N=C/c3ccc(Br)cc3)n2)cc1 [Compound 62, (E)-N′-(4-bromobenzylidene)-6-(4-methoxyphenyl)pyrazine-2-carbohydrazide]
8 | > 1000 nM | 3200 nM | CCOc1ccc(-c2cncc(C(=O)N/N=C/c3ccccc3CS(C)(=O)=O)n2)cc1 [Compound 191, (E)-6-(4-ethoxyphenyl)-N′-(2-((methylsulfonyl)methyl)benzylidene)pyrazine-2-carbohydrazide]
9 | > 1000 nM | > 10000 nM | COc1ccc(-c2cncc(C(=O)N/N=C/c3cccc(CN(C)C)c3)n2)cc1 [Compound 38, (E)-N′-(3-((dimethylamino)methyl)benzylidene)-6-(4-methoxyphenyl)pyrazine-2-carbohydrazide]
10 | > 1000 nM | > 10000 nM | COc1ccc(-c2cncc(C(=O)N/N=C/c3ccc(F)c(C(N)=O)c3)n2)cc1 [Compound 35, (E)-2-fluoro-5-((2-(6-(4-methoxyphenyl)pyrazine-2-carbonyl)hydrazono)methyl)benzamide]
11 | > 1000 nM | 3590 nM | COc1ccc(-c2cncc(C(=O)N/N=C/c3ccccc3C(C)(C)C)n2)cc1 [Compound 52, (E)-N′-(2-(tert-butyl)benzylidene)-6-(4-methoxyphenyl)pyrazine-2-carbohydrazide]
12 | 156 nM | 308 nM | CCOc1ccc(-c2cncc(C(=O)N/N=C/c3cc(OC)cc(OC)c3OCC)n2)cc1 [Compound 14, (E)-N′-(2-ethoxy-3,5-dimethoxybenzylidene)-6-(4-ethoxyphenyl)pyrazine-2-carbohydrazide]
13 | 60.9 nM | 123 nM | COc1cc(/C=N/NC(=O)c2cncc(-c3ccc(OCSC)cc3)n2)cc(OC)c1 [Compound 149, (E)-N′-(3,5-dimethoxybenzylidene)-6-(4-((methylthio)methoxy)phenyl)pyrazine-2-carbohydrazide]
14 | 74.5 nM | 268 nM | CCOc1ccc(-c2cncc(C(=O)N/N=C/c3cccc(OC)c3F)n2)cc1 [Compound 21, (E)-6-(4-ethoxyphenyl)-N′-(2-fluoro-3-methoxybenzylidene)pyrazine-2-carbohydrazide]
15 | 62.6 nM | 237 nM | CCOc1ccc(-c2cncc(C(=O)N/N=C/c3cc(OC)ccc3Cl)n2)cc1 [Compound 18, (E)-N′-(2-chloro-5-methoxybenzylidene)-6-(4-ethoxyphenyl)pyrazine-2-carbohydrazide]
16 | > 1000 nM | > 10000 nM | CCCN1CCN(c2cncc(C(=O)N/N=C/c3cc(OC)cc(OC)c3)n2)CC1 [Compound 128, (E)-N′-(3,5-dimethoxybenzylidene)-6-(4-propylpiperazin-1-yl)pyrazine-2-carbohydrazide]
17 | 102 nM | 55.6 nM | COc1cc(/C=N/NC(=O)c2cncc(-c3ccc(OC4CCCC4)cc3)n2)cc(OC)c1 [Compound 30, 6-[4-(cyclopentyloxy)phenyl]-N′-[(E)-(3,5-dimethoxyphenyl)methylidene]pyrazine-2-carbohydrazide]
18 | > 300 nM | > 300 nM | CCOc1ccc(-c2cnc(-c3ccccc3)c(C(=O)N/N=C/c3cc(OC)cc(OC)c3)n2)cc1 [Compound 147, (E)-N′-(3,5-dimethoxybenzylidene)-6-(4-ethoxyphenyl)-3-phenylpyrazine-2-carbohydrazide]
19 | > 1000 nM | > 10000 nM | COc1cc(/C=N/NC(=O)c2cncc(Cl)n2)cc(OC)c1 [Compound 163, (E)-6-chloro-N′-(3,5-dimethoxybenzylidene)pyrazine-2-carbohydrazide]
20 | 27.2 nM | 228 nM | CCOc1ccc(-c2cncc(C(=O)N/N=C/c3cccc(OC)c3)n2)cc1 [Compound 22, (E)-6-(4-ethoxyphenyl)-N′-(3-methoxybenzylidene)pyrazine-2-carbohydrazide]
21 | > 300 nM | > 300 nM | CCOc1ccc(-c2cnc(Oc3ccccc3)c(C(=O)N/N=C/c3cc(OC)cc(OC)c3)n2)cc1 [Compound 146, (E)-N′-(3,5-dimethoxybenzylidene)-6-(4-ethoxyphenyl)-3-phenoxypyrazine-2-carbohydrazide]
22 | 952 nM | 7220 nM | CCOc1ccc(-c2cncc(C(=O)N/N=C/c3ccccc3S(C)(=O)=O)n2)cc1 [Compound 192]
23 | > 1000 nM | > 10000 nM | CCOc1ccc(-c2cncc(C(=O)N/N=C/c3cc(CCO)cc(OC)c3)n2)cc1 [Compound 214]
24 | > 1000 nM | > 10000 nM | COc1cc(/C=N/NC(=O)c2cncc(OC)n2)cc(OC)c1 [Compound 140, (E)-N′-(3,5-dimethoxybenzylidene)-6-methoxypyrazine-2-carbohydrazide]
25 | 747 nM | 1930 nM | CCOc1cc(/C=N/NC(=O)c2cncc(-c3ccc(OC)cc3)n2)cc(OCC)c1 [Compound 67, (E)-N′-(3,5-diethoxybenzylidene)-6-(4-methoxyphenyl)pyrazine-2-carbohydrazide]
26 | > 1000 nM | > 10000 nM | COc1cc(/C=N/NC(=O)c2cncc(-c3ccncc3)n2)cc(OC)c1 [Compound 103, (E)-N′-(3,5-dimethoxybenzylidene)-6-(pyridin-4-yl)pyrazine-2-carbohydrazide]
27 | > 1000 nM | > 10000 nM | CCOc1ccc(-c2cncc(C(=O)N/N=C/c3ccccc3NS(C)(=O)=O)n2)cc1 [Compound 193, (E)-N-(2-((2-(6-(4-ethoxyphenyl)pyrazine-2-carbonyl)hydrazinalidene)methyl)phenyl)methanesulfonamide]
28 | 232 nM | 7860 nM | CCOc1ccc(-c2cncc(C(=O)N/N=C/c3cc(OC)c(F)c(OC)c3)n2)cc1 [Compound 17, (E)-6-(4-ethoxyphenyl)-N′-(4-fluoro-3,5-dimethoxybenzylidene)pyrazine-2-carbohydrazide]
29 | 913 nM | > 10000 nM | CCc1cncc(C(=O)N/N=C/c2cc(OC)cc(OC)c2)n1 [Compound 133, (E)-N′-(3,5-dimethoxybenzylidene)-6-ethylpyrazine-2-carbohydrazide]
30 | 93.3 nM | 224 nM | CCCOc1cc(/C=N/NC(=O)c2cncc(-c3ccc(OCC)cc3)n2)cc(OC)c1 [Compound 16, (E)-6-(4-ethoxyphenyl)-N′-(3-methoxy-5-propoxybenzylidene)pyrazine-2-carbohydrazide]

Source: patent US20240335442A1 (Eurofarma Laboratórios S.A., priority 2021, published 2024)
